What all share (assay): biochemical
Test [1] addresses AAK1 (Homo sapiens, UniProt Q2M2I8). The arrangement: kinase domain; Thermal shift assay (DSF, SYPRO Orange), 2 uM kinase domain, mean delta Tm of triplicates versus DMSO. Conditions: read-out: AAK1. How it is done:
(§1) All measurements were performed in triplicate and mean values were reported for all compounds (Table S1). […] However, NAKs are often omitted from selectivity panels, including commercial screens.

Test [2] addresses T1, GAK (Homo sapiens, UniProt O14976).
T1 construct: catalytic domain-containing construct
T1 sequence (O14976 1-1311): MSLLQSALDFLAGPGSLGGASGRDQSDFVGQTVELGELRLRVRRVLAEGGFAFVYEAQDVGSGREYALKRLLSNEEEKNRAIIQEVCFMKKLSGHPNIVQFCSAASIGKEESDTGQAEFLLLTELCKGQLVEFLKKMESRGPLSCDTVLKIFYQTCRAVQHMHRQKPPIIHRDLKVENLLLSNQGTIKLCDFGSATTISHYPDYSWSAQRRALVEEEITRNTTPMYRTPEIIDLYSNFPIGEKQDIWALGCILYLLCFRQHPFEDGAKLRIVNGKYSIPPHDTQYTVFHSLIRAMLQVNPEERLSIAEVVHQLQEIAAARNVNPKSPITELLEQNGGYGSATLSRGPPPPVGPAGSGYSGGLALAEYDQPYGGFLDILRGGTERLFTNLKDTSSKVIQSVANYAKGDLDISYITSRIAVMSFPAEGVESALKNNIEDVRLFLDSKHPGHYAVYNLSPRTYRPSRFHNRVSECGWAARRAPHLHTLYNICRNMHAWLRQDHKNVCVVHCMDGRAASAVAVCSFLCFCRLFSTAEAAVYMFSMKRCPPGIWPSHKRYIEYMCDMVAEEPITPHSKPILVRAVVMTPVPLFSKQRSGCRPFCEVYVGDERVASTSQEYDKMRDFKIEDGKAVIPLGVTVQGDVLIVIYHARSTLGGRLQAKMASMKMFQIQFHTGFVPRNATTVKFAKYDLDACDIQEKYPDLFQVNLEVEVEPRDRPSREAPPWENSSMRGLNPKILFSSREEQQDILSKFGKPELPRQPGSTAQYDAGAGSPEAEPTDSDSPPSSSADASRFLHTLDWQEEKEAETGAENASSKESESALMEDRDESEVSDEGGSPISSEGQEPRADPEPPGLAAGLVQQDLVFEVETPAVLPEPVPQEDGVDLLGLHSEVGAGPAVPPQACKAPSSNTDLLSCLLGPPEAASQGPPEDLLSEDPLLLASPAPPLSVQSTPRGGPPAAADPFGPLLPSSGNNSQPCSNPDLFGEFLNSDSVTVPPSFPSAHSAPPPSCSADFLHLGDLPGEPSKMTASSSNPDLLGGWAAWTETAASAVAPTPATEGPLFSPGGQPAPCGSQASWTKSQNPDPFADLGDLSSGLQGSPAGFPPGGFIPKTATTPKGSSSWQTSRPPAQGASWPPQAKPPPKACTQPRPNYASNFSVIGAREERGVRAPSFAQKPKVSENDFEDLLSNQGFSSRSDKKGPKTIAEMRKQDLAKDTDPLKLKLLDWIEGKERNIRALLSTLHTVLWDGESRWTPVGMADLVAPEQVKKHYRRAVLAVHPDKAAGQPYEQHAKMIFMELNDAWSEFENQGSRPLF
The arrangement: Thermal shift assay (DSF, SYPRO Orange), 2 uM kinase domain, mean delta Tm of triplicates versus DMSO. Conditions: for ΔTm at 12.5 µM: read-out: GAK. The method, then:
as §1

Test [3] concerns the target T2, BIKE (Homo sapiens, UniProt Q9NSY1).
T2 construct: gene BMP2K; catalytic domain-containing construct
The arrangement: Thermal shift assay (DSF, SYPRO Orange), 2 uM kinase domain, mean delta Tm of triplicates versus DMSO. Conditions: read-out: BIKE. The method, then:
as §1

For test [4], the target named is T3, MPSK1 (Homo sapiens, UniProt O75716).
T3 construct: gene STK16; catalytic domain-containing construct
T3 sequence (O75716 whole entry, the tested form may be a part): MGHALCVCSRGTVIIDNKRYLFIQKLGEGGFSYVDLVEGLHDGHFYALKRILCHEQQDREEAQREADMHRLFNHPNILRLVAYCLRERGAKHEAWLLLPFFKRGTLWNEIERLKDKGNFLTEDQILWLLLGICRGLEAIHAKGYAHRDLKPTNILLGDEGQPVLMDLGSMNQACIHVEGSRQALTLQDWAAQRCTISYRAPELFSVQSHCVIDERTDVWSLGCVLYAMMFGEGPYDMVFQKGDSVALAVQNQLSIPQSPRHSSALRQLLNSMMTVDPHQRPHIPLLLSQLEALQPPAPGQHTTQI
The arrangement: Thermal shift assay (DSF, SYPRO Orange), 2 uM kinase domain, mean delta Tm of triplicates versus DMSO. Conditions: read-out: MPSK1. The method, then: as §1

T2 sequence (Q9NSY1 whole entry, the tested form may be a part): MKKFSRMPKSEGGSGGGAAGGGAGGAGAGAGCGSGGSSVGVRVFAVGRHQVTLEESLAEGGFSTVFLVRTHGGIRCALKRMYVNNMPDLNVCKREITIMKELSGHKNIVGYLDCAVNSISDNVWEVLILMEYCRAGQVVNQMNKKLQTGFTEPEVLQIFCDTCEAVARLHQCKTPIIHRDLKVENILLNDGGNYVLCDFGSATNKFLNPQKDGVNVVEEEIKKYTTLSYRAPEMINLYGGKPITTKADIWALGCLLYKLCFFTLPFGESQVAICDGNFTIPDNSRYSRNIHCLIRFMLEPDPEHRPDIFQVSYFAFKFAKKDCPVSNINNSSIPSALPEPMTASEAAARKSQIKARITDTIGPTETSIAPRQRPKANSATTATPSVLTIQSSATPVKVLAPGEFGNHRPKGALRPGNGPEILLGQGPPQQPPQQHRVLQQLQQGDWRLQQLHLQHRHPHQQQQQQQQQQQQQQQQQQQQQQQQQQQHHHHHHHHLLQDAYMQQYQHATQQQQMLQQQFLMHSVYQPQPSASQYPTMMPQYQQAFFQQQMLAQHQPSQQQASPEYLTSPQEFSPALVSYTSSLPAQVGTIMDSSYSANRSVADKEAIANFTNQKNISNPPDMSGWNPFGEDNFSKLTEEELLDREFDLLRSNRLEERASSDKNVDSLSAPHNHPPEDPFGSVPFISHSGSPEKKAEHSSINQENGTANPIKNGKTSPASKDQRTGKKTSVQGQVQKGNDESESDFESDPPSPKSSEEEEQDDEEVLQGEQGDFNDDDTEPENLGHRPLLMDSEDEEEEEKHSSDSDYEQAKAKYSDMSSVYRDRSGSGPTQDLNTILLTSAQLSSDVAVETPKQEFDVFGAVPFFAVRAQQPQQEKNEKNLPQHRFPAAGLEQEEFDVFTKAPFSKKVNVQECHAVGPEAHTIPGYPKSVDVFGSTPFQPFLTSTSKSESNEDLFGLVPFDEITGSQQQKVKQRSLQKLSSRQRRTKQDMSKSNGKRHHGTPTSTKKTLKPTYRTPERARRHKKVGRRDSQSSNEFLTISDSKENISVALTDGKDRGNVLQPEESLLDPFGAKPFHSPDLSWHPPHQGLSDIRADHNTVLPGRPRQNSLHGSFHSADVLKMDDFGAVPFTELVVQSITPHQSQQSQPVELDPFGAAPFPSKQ
Chain of AAK1 (Q2M2I8 27-365 limits assumed): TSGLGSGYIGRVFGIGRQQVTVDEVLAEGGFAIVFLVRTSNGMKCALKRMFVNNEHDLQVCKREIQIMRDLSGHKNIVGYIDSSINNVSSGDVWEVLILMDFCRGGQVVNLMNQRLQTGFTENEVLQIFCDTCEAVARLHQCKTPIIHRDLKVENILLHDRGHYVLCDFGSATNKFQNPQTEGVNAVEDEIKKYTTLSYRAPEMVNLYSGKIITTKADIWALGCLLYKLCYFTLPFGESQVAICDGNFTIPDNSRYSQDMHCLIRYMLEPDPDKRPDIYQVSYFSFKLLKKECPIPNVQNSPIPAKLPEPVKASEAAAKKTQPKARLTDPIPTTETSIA

As for `Cc1ccc(NC(=O)c2ccc(CN3CC[C@H](N(C)C)C3)c(C(F)(F)F)c2)cc1Nc1nccc(-c2cncnc2)n1` [Bafetinib], the ΔTm at 12.5 µM in test [1] was 1.07 °C; in test [2], 4.57 °C; in test [3], 1.1 °C; in test [4], 2.51 °C.
For `COc1cc(Nc2c(C#N)cnc3cc(OCCCN4CCN(C)CC4)c(OC)cc23)c(Cl)cc1Cl` [Bosutinib] the same measures were 3.03 °C, 9.42 °C, 5.88 °C and 1.25 °C.
`Cc1cc2c(F)c(Oc3ncnn4cc(OC[C@@H](C)O)c(C)c34)ccc2[nH]1` [Brivanib]: the ΔTm at 12.5 µM in test [1] was found to be 1.34 °C; in test [2] it was 0.347 °C; in test [3] it was 0.81 °C; in test [4], 0.977 °C.
For the compound `Nc1cc(C(F)(F)F)c(-c2cc(N3CCOCC3)nc(N3CCOCC3)n2)cn1` [Buparlisib], the ΔTm at 12.5 µM in test [1] was 0.317 °C; in test [2] it was -0.927 °C; in test [3], 0.573 °C; in test [4] it was 1.75 °C.
On the same counts, the results for `C#Cc1cccc(Nc2ncnc3cc(OC)c(OCCCCCCC(=O)NO)cc23)c1` [CUDC-101] are 0.713 °C, 2.77 °C, 0.917 °C and 0.407 °C.
For `COc1cc2nccc(Oc3ccc(NC(=O)C4(C(=O)Nc5ccc(F)cc5)CC4)cc3)c2cc1OC` [Cabozantinib] the same measures were 0.82 °C, 2.46 °C, 0.743 °C and 0.713 °C.
As for `COc1cc2c(Oc3ccc4[nH]c(C)cc4c3F)ncnc2cc1OCCCN1CCCC1` [Cediranib], the ΔTm at 12.5 µM in test [1] stood at 0.543 °C; in test [2], 0.667 °C; in test [3], 1.58 °C; in test [4] it was 1.03 °C.
For `CC1(COc2ccc3c(c2)ncn3-c2ccc3cccc(N4CCC(N)CC4)c3n2)COC1` [Crenolanib] the same measures were 4.66 °C, 3.73 °C, 12 °C and 4.1 °C.
For `C[C@@H](Oc1cc(-c2cnn(C3CCNCC3)c2)cnc1N)c1c(Cl)ccc(F)c1Cl` [Crizotinib] the same measures were 3.01 °C, -0.44 °C, 7.44 °C and 1.95 °C.
For `CC(C)(C)c1nc(-c2cccc(NS(=O)(=O)c3c(F)cccc3F)c2F)c(-c2ccnc(N)n2)s1` [Dabrafenib] the same measures were 2.23 °C, 9.06 °C, 2.95 °C and 4.06 °C.
On to `COc1cc2ncnc(Nc3ccc(F)c(Cl)c3)c2cc1NC(=O)/C=C/CN1CCCCC1` [Dacomitinib], for which the ΔTm at 12.5 µM is 3.8 °C in test [1], 7.28 °C in test [2], 5.85 °C in test [3] and 0.97 °C in test [4].
For `Cn1c(=O)n(-c2ccc(C(C)(C)C#N)cc2)c2c3cc(-c4cnc5ccccc5c4)ccc3ncc21` [Dactolisib], the ΔTm at 12.5 µM is 0.747 °C in test [1], -0.05 °C in test [2], 0.873 °C in test [3] and 1.49 °C in test [4].
On the same counts, the results for `CO[C@@H](C(=O)N1Cc2[nH]nc(NC(=O)c3ccc(N4CCN(C)CC4)cc3)c2C1)c1ccccc1` [Danusertib] are 1.74 °C, 0.59 °C, 1.68 °C and 2.36 °C.
As to `Cc1nc(Nc2ncc(C(=O)Nc3c(C)cccc3Cl)s2)cc(N2CCN(CCO)CC2)n1` [Dasatinib], the results for the ΔTm at 12.5 µM in test [1], in test [3] and in test [4] were 0.363 °C, -0.673 °C and 0.0333 °C, respectively. The GAK in test [2] (12.5 µM) was 0.14 °C.
For `CCc1cnn2c(NCc3ccc[n+]([O-])c3)cc(N3CCCC[C@H]3CCO)nc12` [Dinaciclib], the ΔTm at 12.5 µM in test [1] is 0.23 °C; in test [2] it was -1.13 °C; in test [3], 0.5 °C; in test [4] it was 1 °C.

Source of the values: publication PMC4780864, “Family-wide Structural Analysis of Human Numb-Associated Protein Kinases” (Structure(London, England:1993), 2016).
